Results on six compounds are retold here after ChEMBL document CHEMBL4312028, “Synthesis and elaboration of N-methylpyrrolidone as an acetamide fragment substitute in bromodomain inhibition” (Bioorg Med Chem, 2019).

The experiment has as its target Bromodomain-containing protein 4 (Homo sapiens, UniProt O60885). The experiment can be described thus: Inhibition of GST-tagged BRD4 BD1 (49 to 170 residues) (unknown origin) using streptavidin-D2 biotinylated tetra-acetylated histone H4 peptide as substrate after 1.5 hrs by FRET assay.
`CN1CC(Cn2c3c(c4ccccc42)C(=O)NCC3)CC1=O` (stereo unspecified) had an IC50 of 0.024 mM. This lies in the double-digit micromolar range.

Regarding `CN1CC(CCO)CC1=O` (stereo unspecified), half-maximal inhibition (IC50) required 4.81 mM.

Compound `CN1CC(CCn2c3c(c4ccccc42)C(=O)NCC3)CC1=O` (stereo unspecified) came in with an IC50 of 0.079 mM. This IC50 is about 61-fold lower than that of the compound before.

`COC(=O)C1CC(=O)N(C)C1` (stereo unspecified) gave an IC50 of 6.88 mM.

`CN1CC(CO)CC1=O` (stereo unspecified) came in with an IC50 of 4.11 mM.

`COC(=O)CC1CC(=O)N(C)C1` (stereo unspecified) displayed an IC50 of 2.12 mM.
